Test results: patent US5036083A, “Heterocyclic agents” (ICI Pharma, priority 1988, dated 1991)

Experiments:
[1] = tested on: dogs; test: Induction of methaemoglobin formation in dogs dosed orally; type: in vivo, dog; conditions: oral, 5 mg/kg
From the text: In copending European Application No. 88300281.8 (published 28th Sept., 1988 as EP 0284174 Al) it is disclosed that certain indazolone derivatives are effective as inhibitors of the enzyme 5-LO and thus of leukotriene biosyntheses.

[2] = target: T1, 5-LO (Cavia porcellus, UniProt A0A286X958); test: Test (a): in vitro spectrophotometric cell-free enzyme assay, 5-LO isolated from guinea pig neutrophils; type: biochemical; conditions: 5-LO from guinea pig neutrophils
T1 construct: cell free system using 5-LO isolated from guinea pig neutrophils; endogenous in cells; host or cells: guinea pig neutrophils
T1 sequence (A0A286X958 1-674): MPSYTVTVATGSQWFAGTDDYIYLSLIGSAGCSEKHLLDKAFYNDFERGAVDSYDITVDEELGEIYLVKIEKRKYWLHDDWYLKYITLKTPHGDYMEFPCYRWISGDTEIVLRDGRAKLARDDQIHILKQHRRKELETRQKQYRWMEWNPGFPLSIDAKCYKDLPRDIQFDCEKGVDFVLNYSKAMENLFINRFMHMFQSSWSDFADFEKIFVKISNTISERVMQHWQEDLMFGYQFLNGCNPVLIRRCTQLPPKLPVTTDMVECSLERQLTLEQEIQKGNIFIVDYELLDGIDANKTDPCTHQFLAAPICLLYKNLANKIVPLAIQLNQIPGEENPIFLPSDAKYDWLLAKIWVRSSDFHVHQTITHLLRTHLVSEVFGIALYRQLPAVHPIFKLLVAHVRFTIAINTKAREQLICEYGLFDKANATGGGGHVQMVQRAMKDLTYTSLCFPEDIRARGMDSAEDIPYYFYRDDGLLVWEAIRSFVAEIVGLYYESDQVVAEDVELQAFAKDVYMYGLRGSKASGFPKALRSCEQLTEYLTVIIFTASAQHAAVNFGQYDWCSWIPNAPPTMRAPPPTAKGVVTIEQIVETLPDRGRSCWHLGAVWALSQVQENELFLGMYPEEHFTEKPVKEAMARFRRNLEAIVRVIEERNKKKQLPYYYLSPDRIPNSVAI
From the text: (a) An in vitro spectrophotometric enzyme assay system, which assesses the inhibitory properties of a test compound in a cell free system using 5-LO isolated from guinea pig neutrophils and as described by D. Aharony and R. L. Stein (J. Biol. Chem., 1986, 261(25), 11512-11519). This test provides a measure of the intrinsic inhibitory properties against soluble 5-LO in an extracellular environment.

[3] = target: T2, 5-LO (Rattus norvegicus, UniProt P12527); test: Test (b): heparinised rat blood challenged with A23187, LTB4 radioimmunoassay; type: cell-based; design: incubating a test compound with heparinised rat blood; from tissue; host or cells: heparinised rat blood
T2 sequence (P12527 1-673): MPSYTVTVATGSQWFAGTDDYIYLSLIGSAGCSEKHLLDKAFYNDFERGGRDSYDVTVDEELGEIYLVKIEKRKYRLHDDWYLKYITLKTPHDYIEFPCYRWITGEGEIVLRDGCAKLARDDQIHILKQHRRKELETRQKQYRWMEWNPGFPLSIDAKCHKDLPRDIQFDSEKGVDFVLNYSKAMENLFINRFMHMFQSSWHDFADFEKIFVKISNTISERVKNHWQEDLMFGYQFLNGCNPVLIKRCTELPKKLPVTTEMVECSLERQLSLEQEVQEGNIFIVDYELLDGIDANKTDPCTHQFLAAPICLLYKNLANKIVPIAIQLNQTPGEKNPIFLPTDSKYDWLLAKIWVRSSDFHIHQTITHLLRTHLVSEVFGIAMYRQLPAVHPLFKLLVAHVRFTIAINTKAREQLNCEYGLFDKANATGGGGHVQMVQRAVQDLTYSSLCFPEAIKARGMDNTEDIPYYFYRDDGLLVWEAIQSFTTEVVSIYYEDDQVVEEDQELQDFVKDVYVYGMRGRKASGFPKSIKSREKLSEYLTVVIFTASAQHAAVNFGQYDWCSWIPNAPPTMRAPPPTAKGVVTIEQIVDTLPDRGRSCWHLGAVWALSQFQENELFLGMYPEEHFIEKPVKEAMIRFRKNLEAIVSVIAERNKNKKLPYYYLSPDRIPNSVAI
Description: (§1) (b) An in vitro assay system involving incubating a test compound with heparinised rat blood, prior to challenge with the calcium ionophore A23187 and then indirectly measuring the inhibitory effects on 5-LO by assaying the amount of LTB4 using the specific radioimmunoassay described by Carey and Forder (F. Carey and R. A. Forder, Brit. J. Pharmacol. 1985, 84, 34P) which involves the use of a protein-LTB4 conjugate produced using the procedure of Young et alia Prostaglandins, 1983, 26(4), 605-613). The effects of a test compound on the enzyme cyclooxygenase (which is involved in the alternative metabolic pathway for arachidonic acid and gives rise to prostaglandins, thromboxanes and related metabolites) may be measured at the same time using the specific radioimmunoassay for prostaglandin E2 (PGE2) described by Carey and Forder (see above). This test provides an indication of the effects of a test compound against 5-LO and also cyclooxygenase in the presence of blood cells and proteins. It permits the selectivity of the inhibitory effect on 5-LO or cyclooxygenase to be assessed.

[4] = target: T3, cyclooxygenase (Rattus norvegicus, UniProt Q63921); test: Test (b): heparinised rat blood challenged with A23187, PGE2 radioimmunoassay; type: cell-based
T3 construct: incubating a test compound with heparinised rat blood; from tissue; host or cells: heparinised rat blood
T3 sequence (Q63921 27-602): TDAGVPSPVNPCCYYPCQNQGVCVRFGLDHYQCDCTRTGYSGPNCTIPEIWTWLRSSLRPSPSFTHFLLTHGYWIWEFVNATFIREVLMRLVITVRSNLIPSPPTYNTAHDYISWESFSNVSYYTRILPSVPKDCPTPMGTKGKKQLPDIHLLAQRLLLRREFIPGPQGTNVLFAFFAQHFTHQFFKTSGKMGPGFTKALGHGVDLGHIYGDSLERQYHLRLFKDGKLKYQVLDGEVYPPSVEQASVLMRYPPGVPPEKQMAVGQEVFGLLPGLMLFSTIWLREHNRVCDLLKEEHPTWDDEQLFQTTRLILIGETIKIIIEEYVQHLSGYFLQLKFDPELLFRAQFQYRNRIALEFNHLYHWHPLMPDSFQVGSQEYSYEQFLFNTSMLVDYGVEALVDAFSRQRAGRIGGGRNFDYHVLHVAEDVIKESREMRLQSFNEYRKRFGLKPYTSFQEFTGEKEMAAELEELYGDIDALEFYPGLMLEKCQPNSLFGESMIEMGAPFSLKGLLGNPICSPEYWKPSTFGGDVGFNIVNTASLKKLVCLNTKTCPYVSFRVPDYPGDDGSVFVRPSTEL
Description: as §1

[5] = target: T2, 5-LO; test: Test (c): ex vivo assay, oral dosing, blood challenged with A23187, LTB4 radioimmunoassay; type: in vivo; design: blood collection, heparinisation, challenge with A23187 and radioimmunoassay of LTB4 and PGE2; from tissue; host or cells: blood of dosed animals, heparinised ex vivo; conditions: A23187 challenge
Description: (c) An ex vivo assay system, which is a variation of test b) above, involving administration of a test compound (usually orally as the suspension produced when a solution of the test compound in dimethylsulphoxide is added to carboxymethylcellulose), blood collection, heparinisation, challenge with A23187 and radioimmunoassay of LTB4 and PGE2. This test provides an indication of the bioavailability of a test compound as an inhibitor of 5-LO or cyclooxygenase.

IC50 [2] [µM]	IC50 [3] [µM]	IC50 [4] [µM]	ED50 [5] [mg/kg]	SMILES	induction of methaemoglobin formation [1]
–	–	–	–	O=c1c2ccccc2[nH]n1Cc1cccnc1 [1,2-dihydro-2-(3-pyridylmethyl) 3H indazol-3-one]	causes induction of methaemoglobin formation
3.1	1.4	72	30 to 100	CCCCCNC(=O)c1cccc2[nH]n(C)c(=O)c12 [Example 5, 1,2-dihydro-2-methyl-4-(N-n-pentylcarbamoyl)-3H-indazol-3-one]	–
